Test results: patent US20080140138A1, “Inhibition of inflammatory cytokine production by stimulation of brain muscarinic receptors” (priority 2002, published 2008)

Tests used:
[1] = system: carrageenan-induced hindpaw edema; test: Carrageenan-induced hindpaw edema; assay type: in vivo, Lewis rats; conditions: CNI-1493 5 μg/rat i.c.v., 1 h before carrageenan; edema 3 h post carrageenan
Protocol: Method of determining CNI-1493 receptor binding. CNI-1493 was tested at a single concentration (10 μM) in a panel of receptor binding assays by NovaScreen Biosciences Corporation (Hanover, Md.). Values were expressed as the percent inhibition of specific binding, and represented the average of duplicate tubes. Method of stereotactic intracerebroventricular injections. A rat model of intracerebroventricular (i.c.v.) injections was established in order to be able to directly deliver pharmacological agents into the brain of rats. This was necessary in order to separate drug effects on peripheral inflammation that occurred through central versus peripheral mechanisms. Lewis rats were anaesthetized with urethane (1 g/kg, i.p.) and xylazine (15 mg/rat, i.m. (intramuscular)). Rats were then placed in a stereotactic head frame (Stoelting, Wood Dale, Ill., USA). The incisor bar was adjusted until the plane defined by the lambda and bregma was parallel to the base plate. For i.c.v. injections the needle of a Hamilton syringe (25 μl) was positioned stereotactically above the lateral ventricle (0.2 mm and 1.5 mm posterior to bregma, 3.2 mm below the dura.) Solutions of the drugs tested were prepared in sterile endotoxin-free water, at the specified concentrations, and a 10-μl injection/rat was administered over 2 min, 1 h prior to either carrageenan injection, or to LPS.
The tested drugs, in either the carrageenan and/or LPS experiments, were: saline control; fluoxetine hydrochloride, (also known as Prozak) (0.01 mg/100 g); muscarine (50 μg/rat, 5 μg/rat, 0.5 μg/rat, 0.05 μg/rat, 0.005 μg/rat); 4-(N-[3-chlorophenyl]carbamoyloxy)-2-butynyltrimethylammonium chloride (also known as McN-A-343) (5 μg/rat); Muscarinic Toxin-3, (also known as MT-3) from Dendroaspis angusticeps snake venom (0.37 μg/rat); nicotine (10 μg/rat); CNI-1493 (1 μg/kg, 50 μg/rat); atropine (1 μg/kg, 5 μg/rat); CNI-1493 plus atropine (1 μg/kg of each of the drugs; 50 μg/rat, 5 μg/rat respectively); naloxone hydrochloride (2 μg/rat), CNI-1493 plus naloxone (50 μg/rat+5 μg/rat respectively); and morphine (20 μg/rat).
Method of carrageenan-induced hindpaw edema. Paw edema was induced in anaesthetized rats by injection of 1% solution of 1-carrageenan (100 μl) into the plantar surface of the left hindpaw. The right hindpaw was injected with the same volume of saline alone (as control). The thickness of the carrageenan-treated and saline-treated hindpaw was measured using a caliper at 3 h post carrageenan, and the difference between paw thickness calculated as an index of inflammation (paw swelling). Method of LPS injections and TNF determination. LPS (15 mg/kg, i.v.) was injected in the tail vein 1 h after drug injection. Blood was obtained 2 h post LPS injection by paraorbital bleeding. Serum TNF concentrations were determined by an L929 bioactivity assay. Method of assessing TNF by the L929 bioactivity assay. L929 cells were suspended in Dulbecco's minimal Eagle's medium (DMEM; GibcoBRL) supplemented with fetal bovine serum (10%; Hyclone) and penicillin/streptomycin (0.5%; Sigma Chemical Co.), and plated at 2×10^4 cells per well in 96-well flat-bottomed microtiter plates. After 24 h, media were respirated and replaced with medium containing cycloheximide (10 μg/ml; Sigma Chemical Co.) and the samples to be assayed/TNF standards. Plates were incubated overnight, at which time cell viability as a function of TNF concentration was assessed by the MTT assay. Absorbance values were converted to units per milliliter by comparison with a standard curve for rat TNF.
In a third set of experiments, rats were injected by i.c.v. means with either saline (n=4), CNI-1493 (5 μg/rat, n=3), CNI-1493 plus atropine (5 μg/rat each), or atropine (5 μg/rat). Carrageenan was given to the animals 1 h later, and paw edema was determined 3 h post carrageenan. […]

LPS-induced TNF release = test: Conditioning (CNI-1493 with bell ringing), LPS-induced TNF release, L929 assay; assay type: in vivo, Mice; conditions: CNI-1493 2.5 mg/kg i.p. with bell ringing vs. saline with bell ringing (Group 2 vs. Group 4; p=0.22); LPS 5 mg/kg i.p.
Protocol: Mice were grouped into four groups (n=4 animals/group). The conditioning training for Groups 2-4 consisted of morning and afternoon sessions. Mice in group 2 were together taken to a room, where each mouse was injected with CNI-1493 (2.5 mg/kg, i.p.). Simultaneously with the injection, each mouse was subjected to 45 seconds of bell ringing. Group 4 mice, similar to Group 2 mice, were subjected to control conditioning, whereby mice were injected with saline, instead of CNI-1493. Group 3 mice, like Group 2 mice, were subjected to saline injections but not bell ringing. This protocol was performed over a 10 day period, on days 1-4 and 8-10. On day 11, Group 1 mice were injected with CNI-1493 (2.5 mg/kg, i.p.). Also on day 11, 30 min after the Group 1 mice injections were performed, animals in all groups were injected with LPS (5 mg/kg, i.p.). After 2 hours, the mice were euthanized via CO2 inhalation, and blood was withdrawn. Serum TNF was determined by the L929 assay.

CC(=NNC(=N)N)c1cc(NC(=O)CCCCCCCCC(=O)Nc2cc(C(C)=NNC(=N)N)cc(C(C)=NNC(=N)N)c2)cc(C(C)=NNC(=N)N)c1.Cl.Cl.Cl.Cl [CNI-1493, N,N′-bis(3,5-diacetylphenyl) decanediamide tetrakis (amidinohydrazone) tetrahydrochloride]
inhibition of carrageenan-induced paw edema [1]: significantly inhibits | reduction of mean LPS-induced TNF release by conditioning (LPS-induced TNF release): about 60%
